Test results as given in patent US20260240923A1, “COMPOSITION COMPRISING BIFIDOBACTERIUM ANIMALIS SUBSP. LACTIS STRAIN AND 2’-FUCOSYLLACTOSE” (Chr. Hansen A/S, priority 2023, published 2026).

System: human PBMCs
Test: Cytokine secretion from human PBMCs, homeostatic and Poly (I:C) challenged conditions (Example 6)
Type: cell-based
Settings: homeostatic (unchallenged) conditions, 20 hrs; bacteria grown on 2′FL; 2′FL 2%

## 2′-Fucosyllactose [2′FL]
  IFN-γ secretion: did not induce secretion
  IL-10 secretion: did not induce secretion
